{"source": "patent US20070037887A1", "about": "“Blockade of mtor to prevent a hormonal adaptive response” (University of Virginia Patent Foundation, priority 2003, published 2007)", "key": {"mTOR": {"biological_target": "T1, mTOR (Rattus norvegicus, UniProt P42346)", "T1 construct": "expressed in transfected cells; host or cells: 293T", "test": "Immune complex assay of mTOR activity, compound added to extracts or immune complexes", "type": "biochemical", "details": "for PHAS-I kinase activity of AU1-mTOR: extracts incubated with increasing concentrations", "description": "293T cells were transfected with expression vectors for AU1-epitope tagged mTOR, HA-tagged raptor, and HA-tagged mLST8. After 24 h, the overexpressed mTOR was immunoprecipitated with AU1 antibodies, and immune complexes were incubated with increasing concentrations of FTS in a reaction mixture containing 2 mM [γ^32P] ATP (250 μCi/ml), 20 mM MnCl2, and 0.1 mg/ml purified recombinant histidine-tagged PHAS-1. After fifteen minutes the reaction was stopped by adding SDS sample buffer, and samples were subjected to SDS-PAGE. The amount of ^32P incorporated into PHAS-I was determined and expressed as a percentage of that incorporated in the absence of FTS. Mean values±the half the range of two experiments are presented.\n293T cells were transfected with pcDNA3 alone (Vec.) or with a combination of pcDNA3AU1-mTOR, pcDNA33HA-Raptor, and pcDNA33HA-mLST8. Extracts of the cells were incubated with increasing concentrations of FTS before AU1-mTOR was immunoprecipated. Samples of the immune complexes were incubated with [γ-^32P]ATP and recombinant [His^6]PHAS-I, then subjected to SDS-PAGE and transferred to an immobilon membrane. After obtaining a phosphorimage of the membrane to detect ^32P-PHAS-I, the membrane was immunoblotted with PThr^36/45 antibodies. Other samples of the immune complexes were subjected to SDS-PAGE and immunoblots were prepared with antibodies to the HA epitope or to mTOR (see FIG. 13A). Extracts of nontransfected 293T cells were incubated with increasing concentrations of FTS before mTOR was immunoprecipated with mTAb1. A control immunoprecipitation was conducted using nonimmune IgG (NI). Immune complexes were subjected to SDS-PAGE and immunoblots were prepared with antibodies to mLST8, mTOR, and raptor.\nSamples of extracts from 293T cells overexpressing AU1-mTOR, HA-raptor, and HA-mLST8 were incubated for 1 h with increasing concentrations of FTS (●, ▴, ▪) or GTS (∘, Δ, □) before immunoprecipitations were conducted with anti-AU1 antibodies. mTOR kinase activity (●, ∘) was determined by measuring ^32P incorporation into [His^6]PHAS-I in immune complex kinases assays performed with [γ-^32P]ATP (see FIG. 14A). The relative amounts of HA-raptor (▴, Δ) and HA-mLST8 (▪, □) that coimmunoprecipitated with AU1-mTOR were determined after immunoblotting with anti-HA antibodies (see FIG. 14B). The results (mean values+S.E. from 5 experiments) are expressed as percentages of the mTOR activity (FIG. 14A) or coimmunoprecipitating proteins (FIG. 14B) from samples incubated without FTS or GTS, and have been corrected for the amounts of AU1-mTOR immunoprecipitated.\n293T cells were transfected with pcDNA3 alone (Vec.) or with a combination of pcDNA3AU1-mTOR, pcDNA33HARaptor, and pcDNA33HA-mLST8. AU1-mTOR was immunoprecipitated and samples of the washed immune complexes were at incubated […] for 30 min with no inhibitors or with the following: caffeine (1 mM), FTS (50 μM), LY294002 (10 μM), rapamycin (1 μM) plus FKBP12 (10 μM), and 1 μM wortmannin. To prevent destruction of wortmannin, incubations were conducted in the absence of thiol reducing agents. Samples of the immune complexes were incubated for 10 min with 10 mM MnCl2, 1 mM [γ-^32P]ATP, and 50 μg/ml [His^6]PHAS-I to assess mTOR activity. Other samples were rinsed twice, subjected to SDS-PAGE, and immunoblotted with anti-HA and anti-AU1 antibodies to determine the amounts of HA-raptor and HA-mLST8 associated with AU1-mTOR. The relative amounts of ^32P incorporated into PHAS-I were determined by phosphorimaging (see FIG. 15B)."}, "mTOR-mLST8": {"tested_on": "mTOR-mLST8", "test": "Coimmunoprecipitation of mLST8 with mTOR from 293T cells incubated with compound", "type": "cell-based", "details": "overexpressed in 293T cells, 1 h", "description": "FIG. 11A & 11B represent data showing FTS inhibits PHAS-I phosphorylation and promotes dissociation of the mTOR-raptor complex in 293T cells. 293T cells were transfected with pcDNA3AU1-mTOR, pcDNA33HARaptor, pcDNA33HA-mLST8, and pCMV-Tag3APHAS-I (FIG. 11A). After 18 h the cells were incubated for 1 h with increasing concentrations of FTS before extracts were prepared. A sample of each extract was subjected to SDS-PAGE and immunoblotted to detect PHAS-I or PThr^36/45. AU1-mTOR was also immunoprecipitated from each extract, and immune complexes were subjected to SDSPAGE and immunoblotted with mTAb2, to detect mTOR, and with anti-HA antibodies, to detect HA-mLST8 and HA-raptor. Nontransfected 293T cells were incubated with increasing concentrations of FTS for 1 h before extracts were prepared. mTOR was immunoprecipitated with mTAb1, and samples were subjected to SDS-PAGE.\nFIGS. 12A & 12B represent data showing the effects of incubating cells with increasing concentrations of FTS and GTS on mTOR activity and mTOR association with raptor and mLST8. AU1-mTOR, HA-raptor, and HAmLST8 were overexpressed in 293T cells. The cells were then incubated for 1 h with increasing concentrations of FTS (●, ▴, ▪) or GTS (∘, Δ, □) before extracts were prepared. Immunoprecipitations were then conducted with anti-AU1 antibodies. mTOR kinase activity (●, ∘) was determined by measuring ^32P incorporation into [His^6]PHAS-I in immune complex kinases assays performed with [γ-^32P]ATP. The relative amounts of HA-raptor (▴, Δ) and HA-mLST8 (▪, □) that coimmunoprecipitated with AU1-mTOR were determined after immunoblotting with anti-HA antibodies. The results (mean values±S.E. from 3 experiments) are expressed as percentages of the mTOR activity (FIG. 12A) or coimmunoprecipitating proteins (FIG. 12B) from samples incubated without FTS or GTS, and have been corrected for the amounts of AU1-mTOR immunoprecipitated.\nTo investigate further the inhibitory effects of FTS on mTOR signaling, the effect of the drug on the association of mTOR, raptor, and mLST8 was determined. […]"}}, "data": [{"compound": "CC(C)=CCC/C(C)=C/CC/C(C)=C/CSc1ccccc1C(=O)O", "note": "[FTS, farnesylthiosalicylic acid]", "values": [{"measurement": "concentration at which the effect on mTOR kinase activity could be seen", "setting": "mTOR", "value": 25, "unit": "µM"}, {"measurement": "concentration of maximal effect on mTOR kinase activity", "setting": "mTOR", "value": 100, "unit": "µM"}, {"measurement": "mTOR activity", "setting": "mTOR; FTS 50 μM, comparison with other mTOR inhibitors", "value": "decreased"}, {"measurement": "PHAS-I kinase activity of AU1-mTOR", "setting": "mTOR", "value": "progressively decreased"}, {"measurement": "concentrations needed to inhibit mTOR activity in vitro relative to intact cells", "setting": "mTOR; extracts vs intact cells", "value": "Approximately four times lower"}, {"measurement": "ability of mTOR to phosphorylate a substrate specific to mTOR", "setting": "mTOR; recombinant mTOR immunoprecipitated from transfected cells", "value": "completely blocked"}, {"measurement": "amount of HA-mLST8 associated with AU1-mTOR", "setting": "mTOR-mLST8", "value": "did not appear to change"}]}, {"compound": "CC(C)=CCC/C(C)=C/CSc1ccccc1C(=O)O", "note": "[GTS, S-geranylthiosalicylic acid, reference compound]", "values": [{"measurement": "PHAS-I kinase activity of AU1-mTOR", "setting": "mTOR", "value": "progressive decreases"}, {"measurement": "concentrations for effects on AU1-mTOR activity and AU1-mTOR/HA-raptor association relative to FTS", "setting": "mTOR; extracts of transfected cells", "value": "approximately ten times higher"}, {"measurement": "amount of HA-mLST8 associated with AU1-mTOR", "setting": "mTOR-mLST8", "value": "relatively little effect"}]}]}
